Literature values in article PMC12084609, “Structural insights into small-molecule agonist recognition and activation of complement receptor C3aR” (The EMBO Journal, 2025).

Molecular target: C3aR (Homo sapiens, UniProt Q16581)
Design: method as in Luo et al, 2025
Settings: human monocyte THP-1 cells, naturally express C3aR; ref Luo et al, 2025; cited from earlier work

Chain of C3aR (Q16581 whole entry): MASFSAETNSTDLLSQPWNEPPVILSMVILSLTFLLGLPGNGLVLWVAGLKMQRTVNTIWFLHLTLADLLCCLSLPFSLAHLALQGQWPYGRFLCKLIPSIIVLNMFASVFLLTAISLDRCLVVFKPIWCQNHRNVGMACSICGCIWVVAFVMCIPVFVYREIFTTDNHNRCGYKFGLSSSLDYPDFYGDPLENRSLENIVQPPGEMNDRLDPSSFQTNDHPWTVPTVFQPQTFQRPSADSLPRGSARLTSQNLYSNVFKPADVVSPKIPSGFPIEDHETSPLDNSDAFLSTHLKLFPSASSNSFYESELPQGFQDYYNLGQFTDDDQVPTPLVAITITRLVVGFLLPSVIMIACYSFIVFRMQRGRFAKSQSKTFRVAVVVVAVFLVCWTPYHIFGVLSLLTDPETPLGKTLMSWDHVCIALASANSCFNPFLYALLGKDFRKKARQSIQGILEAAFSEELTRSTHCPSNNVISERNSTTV
Chain of C3aR (P63096 2-354 partner limits assumed): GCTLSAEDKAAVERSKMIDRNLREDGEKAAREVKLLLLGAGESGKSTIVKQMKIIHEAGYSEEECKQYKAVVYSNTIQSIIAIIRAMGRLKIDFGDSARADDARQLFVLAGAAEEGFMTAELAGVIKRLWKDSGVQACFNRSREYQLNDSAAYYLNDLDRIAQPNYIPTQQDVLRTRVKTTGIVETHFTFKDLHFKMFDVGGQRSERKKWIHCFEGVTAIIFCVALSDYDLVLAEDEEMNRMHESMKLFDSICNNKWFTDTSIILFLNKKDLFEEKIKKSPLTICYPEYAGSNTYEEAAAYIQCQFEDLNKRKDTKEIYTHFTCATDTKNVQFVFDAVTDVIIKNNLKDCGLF
Chain of C3aR (P62873 2-340 partner limits assumed): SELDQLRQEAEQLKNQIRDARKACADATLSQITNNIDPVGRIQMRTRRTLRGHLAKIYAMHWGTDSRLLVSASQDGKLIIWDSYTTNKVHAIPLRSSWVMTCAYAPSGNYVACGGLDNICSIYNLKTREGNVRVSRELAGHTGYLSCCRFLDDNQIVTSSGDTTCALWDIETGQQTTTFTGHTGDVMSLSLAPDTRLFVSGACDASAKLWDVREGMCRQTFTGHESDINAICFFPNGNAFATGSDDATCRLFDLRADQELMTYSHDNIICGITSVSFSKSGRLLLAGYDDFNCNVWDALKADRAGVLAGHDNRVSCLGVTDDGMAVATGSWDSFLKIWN
Chain of C3aR (P59768 2-68 partner limits assumed): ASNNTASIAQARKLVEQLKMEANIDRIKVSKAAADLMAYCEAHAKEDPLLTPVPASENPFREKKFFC

In the case of `Cc1cc(C(c2ccc(Cl)cc2)c2ccc(Cl)cc2)sc1C(=O)N[C@@H](CCCNC(=N)N)C(=O)O` [JR14a, reference compound], the “forskolin-induced cAMP production” value is listed as “inhibited forskolin-induced cAMP production in a dose-dependent manner”.
